Structures can show the parent of a compound that is named as a salt.
Key:
MV4-11 cells = assay: Cell viability assay (CellTiter-Glo), MV4-11; type: cell-based; details: Homo sapiens, MV4-11, 24 hours, 1% FBS, read-out: Average pCC50 by molecule MV4-11 (converted)
From the text: (§1) The effect of various compounds of the invention on the viability of MV4-11 and ARH-77 cell lines was investigated, using the CTG protocol described below.
(§2) MV4-11 cell lines are derived from acute myeloid leukaemia and it is described in the literature as a MCL-1 dependent cell line, as opposed to lymphoblast-like ARH-77 cell line, which is described as independent of MCL-1 (Tron A E et al. Nat Commun. 2018; 9: 5341; Caenepeel S et al. Cancer Discov. 2018 December; 8(12): 1582-1597).
(§3) Cells (MV4-11 or ARH-77) were seeded on […] in a growth medium with 1% FBS. Next, compound stocks were pre-diluted in DMSO and added directly to the cell culture media (final DMSO concentration: 0.5%). Compound concentrations used in this assay: 1/3 dilutions starting at 30 μM (9 to 12 points). After 24 hours of incubation, cell viability was evaluated using CellTiter-Glo Luminescent Cell Viability Assay (Promega, cat #G7572). The luminescence signal was measured using a CLARIOstar Plus Multi-Mode Microplate Reader (574-590 nm).
(§4) Results were normalized to DMSO control. Collected data were analyzed using GraphPad Prism to calculate pCC50 values.

[1] = Cell viability assay (CellTiter-Glo), ARH-77; type: cell-based; details: human, ARH-77 cells (lymphoblast-like, MCL-1 independent), ARH-77, 24 hours, 1% FBS, read-out: Average pCC50 by molecule ARH-77 (converted)
From the text: as §1, §2, §3, §4

[2] = molecular target: [MCL-1]-[compound of formula (I)]—[CRBN/DDB1] (Homo sapiens, UniProt Q07820+Q96SW2); assay: HTRF ternary complex formation assay; type: binding; details: hMcl-1 and CRBN, 180 min at 25° C.; read-out: HTRF ternary complex Average pEC50 by molecule (converted)
Description: The effect of the bifunctional compounds of the invention on the formation of a ternary complex composed of [MCL-1]-[compound of formula (I)]—[CRBN/DDB1] was investigated with HTRF ternary complex assay.
Mix of protein solution was prepared: • 48 nM hMcl-1 and 105.6 nM CRBN were prepared in PPI Europium detection buffer with 2 mM DTT. • Acceptor and donor stock solutions were diluted 100 times in PPI Europium detection buffer. Equal volumes of both reagents were mixed. Finally giving 3 nM of Streptavidin-Eu cryptate ([…]) and 6.67 nM of Anti-6×his-d2 ([…]).
5 μl of protein mix was dispensed to all wells. The tested compounds in dose-response were dispensed onto a white 384-well low volume plate (Greiner, 784075). DMSO was backfilled to all wells, resulting in a final DMSO content of 0.5%. Wells containing only DMSO served as a background. Next, 5 μl of solution with donor and acceptor was added to the wells.
The plate was sealed with transparent film and shaken using a VibroTurbulator for 60 sec at level 3. The plate was then spun down shortly (10 s, 1000 rcf) and incubated at 25° C. for 180 min.
The read-out was performed with plate reader (Pherastar, BMG Labtech) in time resolved fluorescence mode. Filterset: TR 337 665 620.
The results were analyzed as follows: • 1) an average of fluorescence for background signal was calculated and used as a negative control; • 2) raw fluorescence values for tested compounds were normalized against negative controls; • 3) bell shape curve was fitted to a gaussian distribution using a non-linear least squares Gauss-Newton algorithm; • 4) EC50 and pEC50 values were determined.

Chain of [MCL-1]-[compound of formula (I)]—[CRBN/DDB1] (Q07820 whole entry): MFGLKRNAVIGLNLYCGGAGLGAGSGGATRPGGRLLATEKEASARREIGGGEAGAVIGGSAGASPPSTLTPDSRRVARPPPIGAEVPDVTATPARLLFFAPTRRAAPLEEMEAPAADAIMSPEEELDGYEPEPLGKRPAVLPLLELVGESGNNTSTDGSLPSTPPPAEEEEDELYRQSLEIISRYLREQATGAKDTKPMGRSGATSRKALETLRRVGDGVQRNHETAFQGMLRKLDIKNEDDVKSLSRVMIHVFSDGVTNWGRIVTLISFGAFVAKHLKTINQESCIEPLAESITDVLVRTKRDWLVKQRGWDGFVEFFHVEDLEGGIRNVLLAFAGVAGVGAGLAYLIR
Chain of [MCL-1]-[compound of formula (I)]—[CRBN/DDB1] (Q96SW2 whole entry): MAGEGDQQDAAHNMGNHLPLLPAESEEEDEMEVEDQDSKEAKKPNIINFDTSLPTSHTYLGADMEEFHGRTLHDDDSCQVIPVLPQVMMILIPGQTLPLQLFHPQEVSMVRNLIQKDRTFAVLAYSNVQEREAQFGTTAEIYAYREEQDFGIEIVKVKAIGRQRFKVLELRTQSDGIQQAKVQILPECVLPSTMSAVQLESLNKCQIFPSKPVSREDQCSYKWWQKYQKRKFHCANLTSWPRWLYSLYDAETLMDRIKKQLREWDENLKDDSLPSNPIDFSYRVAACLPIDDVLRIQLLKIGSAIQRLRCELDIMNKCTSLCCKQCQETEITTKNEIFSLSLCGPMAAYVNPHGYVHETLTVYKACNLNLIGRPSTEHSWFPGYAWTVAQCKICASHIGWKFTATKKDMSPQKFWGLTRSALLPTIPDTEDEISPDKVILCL
Chain of [MCL-1]-[compound of formula (I)]—[CRBN/DDB1] (Q16531 whole entry partner): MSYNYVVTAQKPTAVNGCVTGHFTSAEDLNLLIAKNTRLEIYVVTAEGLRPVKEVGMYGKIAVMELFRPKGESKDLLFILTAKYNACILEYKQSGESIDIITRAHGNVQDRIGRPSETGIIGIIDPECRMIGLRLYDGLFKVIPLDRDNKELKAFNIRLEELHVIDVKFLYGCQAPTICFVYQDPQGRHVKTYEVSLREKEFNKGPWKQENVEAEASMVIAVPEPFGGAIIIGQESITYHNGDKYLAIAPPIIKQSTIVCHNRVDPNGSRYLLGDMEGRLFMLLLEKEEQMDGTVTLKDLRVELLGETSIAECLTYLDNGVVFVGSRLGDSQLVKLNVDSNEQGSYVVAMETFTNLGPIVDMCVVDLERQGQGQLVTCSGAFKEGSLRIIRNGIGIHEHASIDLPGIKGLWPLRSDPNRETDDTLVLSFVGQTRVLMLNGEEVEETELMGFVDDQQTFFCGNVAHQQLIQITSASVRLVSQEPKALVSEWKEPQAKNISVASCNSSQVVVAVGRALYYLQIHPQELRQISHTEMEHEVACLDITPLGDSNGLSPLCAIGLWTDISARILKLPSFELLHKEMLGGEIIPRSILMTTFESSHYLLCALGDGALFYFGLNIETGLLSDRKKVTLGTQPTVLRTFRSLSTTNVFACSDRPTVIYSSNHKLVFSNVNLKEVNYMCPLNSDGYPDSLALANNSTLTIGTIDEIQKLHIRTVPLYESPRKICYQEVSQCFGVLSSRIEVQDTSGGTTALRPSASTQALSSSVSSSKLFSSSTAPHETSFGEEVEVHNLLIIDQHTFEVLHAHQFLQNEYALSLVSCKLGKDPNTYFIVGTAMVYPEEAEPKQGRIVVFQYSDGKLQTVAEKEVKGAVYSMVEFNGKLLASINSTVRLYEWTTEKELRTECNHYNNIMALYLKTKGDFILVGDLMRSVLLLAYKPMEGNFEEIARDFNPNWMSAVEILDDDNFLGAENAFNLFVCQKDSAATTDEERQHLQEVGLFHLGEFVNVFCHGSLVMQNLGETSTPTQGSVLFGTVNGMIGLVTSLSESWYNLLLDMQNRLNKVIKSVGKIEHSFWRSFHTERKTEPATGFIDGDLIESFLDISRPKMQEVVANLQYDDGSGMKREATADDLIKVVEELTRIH

| EC50 [2] | Structure (SMILES) | CC50 (MV4-11 cells) | CC50 at 24 h [1] |
| --- | --- | --- | --- |
| < 31.6 nM | Cc1nn(C)c(C)c1-c1c(Cl)ccc2c(CCCOc3cccc4cc(F)ccc34)c(C(=O)O)n(CCN3CCC(CN4CCN(c5cc6c(cc5F)C(=O)N(C5CCC(=O)NC5=O)C6)CC4)CC3)c12 (stereo not drawn) [Compound 144, 6-Chloro-1-(2-(4-((4-(2-(2,6-dioxopiperidin-3-yl)-6-fluoro-1-oxoisoindolin-5-yl)piperazin-1-yl)methyl)piperidin-1-yl)ethyl)-3-(3-((6-fluoronaphthalen-1-yl)oxy)propyl)-7-(1,3,5-trimethyl-1H-pyrazol-4-yl)-1H-indole-2-carboxylic acid] | < 100 nM | > 3160 nM |
| < 100 nM | COCCOCCn1nc(C)c(-c2c(Cl)ccc3c(CCCOc4cccc5cc(F)ccc45)c(C(=O)O)n(CCN4CCN(C(=O)COc5cccc6c5CN(C5CCC(=O)NC5=O)C6=O)CC4)c23)c1C (stereo not drawn) [Compound 147, 1-(2-(2-Carboxy-6-chloro-3-(3-((6-fluoronaphthalen-1-yl)oxy)propyl)-7-(1-(2-(2-methoxyethoxy)ethyl)-3,5-dimethyl-1H-pyrazol-4-yl)-1H-indol-1-yl)ethyl)-4-(2-((2-(2,6-dioxopiperidin-3-yl)-1-oxoisoindolin-4-yl)oxy)acetyl)piperazin-1-ium trifluoroacetate] | < 100 nM | > 31600 nM |
| < 31.6 nM | Cc1nn(C)c(C)c1-c1c(Cl)ccc2c(CCCOc3cccc4cc(F)ccc34)c(C(=O)O)n(CCN3CCN(C(=O)c4cc5cc(C6CCC(=O)NC6=O)ccc5n4C)CC3)c12 (stereo not drawn) [Compound 148, 6-Chloro-1-(2-(4-(5-(2,6-dioxopiperidin-3-yl)-1-methyl-1H-indole-2-carbonyl)piperazin-1-yl)ethyl)-3-(3-((6-fluoronaphthalen-1-yl)oxy)propyl)-7-(1,3,5-trimethyl-1H-pyrazol-4-yl)-1H-indole-2-carboxylic acid] | < 316 nM | > 3160 nM |
